The source of these data is patent US11933783B2, “Liquid biopsy yield enhancement” (priority 2020, dated 2024).

Like-named read-outs stand apart in the source and are kept apart here.

Assay [1] concerns multiple myeloma residual disease (diseased cells mobilized into blood). The method, then: Patients may be matched across experimental groups by age, sex, and other clinical factors, such as multiple myeloma burden or genetic profile of the multiple myeloma in the patient. When in complete remission using conventional techniques after appropriate therapy, patients in the control group undergo a blood as well as bone marrow examination each of which is subjected to MRD detection/assay using the ClonoSEQ® technique (Adaptive Biotechnologies). […] About 12 hours after plerixafor administration, patients in the LBYE group undergo a blood draw. The blood samples are subjected to MRD assay using the ClonoSEQ® technique. […] In another variation of the experiment, where myeloma patients serve as their own controls, patients undergo bone marrow examination after attaining complete remission. The marrow is subjected to MRD assay by ClonoSEQ®. After the marrow exam is done, each patient receives 20 mg plerixafor and the blood is sampled 12 hours later. Blood samples are subjected to MRD assay by ClonoSEQ®.

In assay [2] the test system is cfDNA / ctDNA. As to conditions: plasma. The method, then: Cell-free DNA (cfDNA) is isolated from patient plasma samples according to known methods. The concentration of the isolated cfDNA from LBYE and control patients are determined.
For assay [3], the system named is multiple myeloma mutations and genetic variations. The following applies: single dose of 20 mg, blood 12 hours later, vs control group bone marrow. The source says: Patients may be matched across experimental groups by age, sex, and other clinical factors, such as multiple myeloma burden or genetic profile of the multiple myeloma in the patient.
Assay [4] deals with lymphoma residual disease (diseased cells mobilized into blood). The method, then:
About 12 hours after plerixafor administration, patients in the LBYE group undergo a blood draw. The blood samples are subjected to MRD assay. […] In another variation of the experiment, where lymphoma patients serve as their own controls, patients undergo blood sampling after attaining complete remission. The blood is subjected to MRD assay. After the blood test is done, each patient receives 20 mg plerixafor and the blood is sampled 12 hours later. These blood samples are subjected to MRD assay by the same technique.

Assay [5] relates to solid tumor residual disease (diseased cells mobilized into blood). Here is the method:
When in complete remission using conventional techniques after appropriate therapy, patients in the control group undergo a blood examination each of which is subjected to MRD detection/assay using an appropriate assay (e.g. The Guardant 360 liquid biopsy or the Tempus XF liquid biopsy). […] About 12 hours after plerixafor administration, patients in the LBYE group undergo a blood draw. The blood samples are subjected to the same MRD assay.
In another variation of the experiment, where cancer patients serve as their own controls, patients undergo blood examination after attaining complete remission. Afterwards, each patient receives 20 mg plerixafor and the blood is sampled 12 hours later. Both samples are subjected to MRD assay.

Assay [6] has as its system lymphoma mutations and genetic variations. The following applies: single dose of 20 mg, blood 12 hours later, vs control group bone marrow.
Procedure: Human patients who are diagnosed with lymphoma are split into two experimental groups, an “LBYE” group and a “control group.” Patients may be matched across experimental groups by age, sex, and other clinical factors, such as lymphoma burden or genetic profile of the lymphoma in the patient.
Patients in the “LBYE” experimental group are administered a single dose of 20 mg plerixafor and undergo blood sampling 12 hours later. This sample is analyzed for the presence of various mutations and genetic variations known to influence prognosis in myeloma. […] In a variation on the above experiment, the LBYE group patients undergo a bone marrow examination which is subjected to appropriate testing.
In another variation on the experiment, the LBYE group's marrow and blood sample are pooled and analyzed in a single assay to make the test more cost-effective. […] The mononuclear cell fraction is analyzed for the presence of lymphoma CTCs by multiparametric flow cytometry according to methods described herein. Lymphoma CTCs are genetically profiled, e.g., by sequencing to determine the mutational profile of the CTCs. Mutational profile of the CTC sample is, in some cases, compared to mutational profile of lymphoma cells obtained from bone marrow sample from the same patient.
For assay [7], the system named is solid tumor mutations and genetic variations. As to conditions: single dose of 20 mg, blood 12 hours later, vs control group solid tumor examination.
Procedure: Human patients who are diagnosed with one or more solid tumors are split into two experimental groups, an “LBYE” group and a “control group.” Patients may be matched across experimental groups by age, sex, and other clinical factors, such as solid tumor burden or genetic profile of the solid tumor in the patient.
Patients in the “LBYE” experimental group are administered a single dose of 20 mg plerixafor and undergo blood sampling 12 hours later. This sample is analyzed for the presence of various mutations and genetic variations known to influence prognosis in myeloma. […] In a variation on the above experiment, the LBYE group patients undergo a solid tumor examination which is subjected to appropriate testing.
In another variation on the experiment, the LBYE group's tumor and blood samples are pooled and analyzed in a single assay to make the test more cost-effective. […] The mononuclear cell fraction is analyzed for the presence of solid tumor CTCs by multiparametric flow cytometry according to methods described herein. Solid tumor CTCs are genetically profiled, e.g., by sequencing to determine the mutational profile of the CTCs. Mutational profile of the CTC sample is, in some cases, compared to mutational profile of solid tumor cells obtained from solid tumor sample from the same patient.
Assay [8] relates to HSC. The following applies: in vivo; cited from earlier work.
Setting [9] is: complete remission, single 20 mg dose, blood about 12 hours after, vs control group blood and bone marrow.
The mark [10] stands for this setting: patients as own controls, 20 mg, blood 12 hours later.

On to `c1cc(CN2CCCNCCNCCCNCC2)ccc1CN1CCCNCCNCCCNCC1` [plerixafor, 1-{[4-(1,4,8,11-tetrazacyclotetradec-1-ylmethyl)phenyl]methyl}-1,4,8,11-tetrazacyclotetradecane], for which, in assay [1] (setting [9]), the “Number of patients with residual disease detected (MRD assay, ClonoSEQ)” value was “Residual disease is detected in a greater number of patients in the LBYE group than in the control group”. The “Proportion of patients positive for MRD, blood after LBYE vs bone marrow” value in assay [1] (patients as own controls, 20 mg, blood 12 hours later, ClonoSEQ) is “A greater proportion of patients is found to be positive for MRD from the blood after the LBYE technique than the bone marrow”. The “cfDNA concentration/amount after LBYE” value in assay [2] (lymphoma, patients as own controls, amongst patients positive for MRD) is listed as “the concentration/amount of cfDNA is higher after LBYE”. Moreover, the “cfDNA concentration, LBYE group vs control group” value in assay [2] (multiple myeloma) and in assay [2] (solid tumor) was “higher cfDNA concentrations than patients in the control group” throughout. Also, the “Frequency and breadth of abnormalities (mutations and genetic variations)” value was “greater frequency and breadth of abnormalities than those in the control group” in assay [3]; “greater frequency and breadth of abnormalities than those in the control group” in assay [6]; “greater frequency and breadth of abnormalities than those in the control group” in assay [7]. The “Number of patients with residual disease detected (MRD assay)” value in assay [4] (setting [9]) was “Residual disease is detected in a greater number of patients in the LBYE group than in the control group”; in assay [5] (complete remission, single 20 mg dose, blood about 12 hours after, vs control group blood), “Residual disease is detected in a greater number of patients in the LBYE group than in the control group”. The “Proportion of patients positive for MRD, blood after LBYE vs non-LBYE blood sample” value in assay [4] (setting [10]) is given as “A greater proportion of patients is found to be positive for MRD from the blood after the LBYE technique than the non-LBYE blood sample”. In addition, the “Proportion of patients positive for MRD, post- vs pre-plerixafor blood sample” value in assay [5] (setting [10]) is given as “A greater proportion of patients is found to be positive for MRD from the blood sample obtained after plerixafor administration, as compared to the pre-plerixafor blood sample”. In addition, in assay [8], the “Mobilization of HSC” value is given as “rapidly mobilize HSC within hours”.
